# Laboratory results as given in patent US20240124454A1, “TRICYCLIC COMPOUND AND USE THEREOF” (NANJING ZAIMING PHARMACEUTICAL CO., LTD., priority 2020, published 2024).
# Test system: HCT116 MTAP^−/− cells
# Test: Determination of intracellular SAM level by LC-MS/MS
# Format: cell-based
# Details: Homo sapiens, HCT-116, 6 h, read-out: SAM production inhibitory activity IC50
# Procedure: Test Example 2. Determination of Intracellular SAM Level
# The brief introduction of the test principle: After the test MAT2A inhibitor was incubated with cancer cells for a period of time, the cells were lysed with a stop reagent to quench the activity of the MAT2A enzyme. The catalytic product SAM of MAT2A in the cell lysate was quantitatively determined by LC-MS/MS, and thus the activity of MAT2A in the cell was reflected.
# Reference: The experiment referred to the method disclosed in patent WO2018045071.
# Material and cell: HCT116 MTAP^−/− cells were purchased from KYinno; fetal bovine serum, McCoy's 5a culture medium, and penicillin-streptomycin were purchased from Gibco Company (U.S.), and 96-well plates were purchased from Corning Company (U.S.).
# Cell culture: HCT116 MTAP^−/− cells were cultured with a McCoy's 5a medium containing 10% fetal bovine serum+1% penicillin-streptomycin at 37° C. with 5% CO2. Cells at logarithmic growth phase were available for the experiment.
# LC-MS/MS detection: The effect of the compound on the SAM production level in HCT116 MTAP^−/− cell strains was detected by LC-MS/MS. The cells were adjusted to a concentration of 50000 cells per well, seeded on a 96-well plate, and incubated overnight at 37° C. with 5% CO2. In the experimental group, the test compound was dissolved in DMSO, diluted sequentially with DMSO and a culture medium, and transferred to a cell plate at a final concentration of 10 μM, 3-fold dilution. The cells were continuously cultured at 37° C. with 5% CO2 for 6 h. The supernatant was pipetted off. After the cells were washed once with PBS, glacial acetic acid was added to lyse the cells. After the lysate was processed, the SAM concentration was determined by LC-MS/MS analysis.
# A negative control group and a positive control group were respectively used as Bottom and Top. The negative control group was added with 10 μM positive compound (compound 072 of Example 51 of patent WO2021139775A1) in the same volume, and other operations were consistent with those of the experimental group. The positive control group was not added with the test compound, only added with DMSO in the same volume, and other operations were consistent with those of the experimental group.
# The % Compound inhibition was calculated and fitted to give the IC50 of the compound.
# % Compound inhibition=1−100%×(Signal−Bottom)/(Top−Bottom)
# Signal referred to the signal value of the experimental group, Bottom referred to the average signal value of the negative control group, and Top referred to the average signal value of the positive control group.
row,Structure (SMILES),IC50 [nM]
1,"Cc1ncccc1-n1c(=O)c2ncn(C)c2c2ccc(C(F)(F)F)nc21 (atropisomer, axis not shown) [Compound 20, 1-methyl-5-(2-methylpyridin-3-yl)-7-(trifluoromethyl)-1,5-dihydro-4H-imidazo[4,5-c][1,8]naphthyridin-4-one]",3
2,"Cn1cnc2c(=O)n(-c3cccnc3C(F)(F)F)c3nc(C(F)(F)F)ccc3c21 (single isomer, unassigned) [Compound 41-P2, 1-methyl-7-(trifluoromethyl)-5-(2-(trifluoromethyl)pyridin-3-yl)-1,5-dihydro-4H-imidazo[4,5-c][1,8]naphthyridin-4-one]",4.6
3,"Cn1cnc2c(=O)n(-c3cccnc3C3CC3)c3cc(Cl)ccc3c21 (single isomer, unassigned) [Compound 49-P2, 7-chloro-5-(2-cyclopropylpyridin-3-yl)-1-methyl-1,5-dihydro-4H-imidazo[4,5-c]quinolin-4-one]",1.9

# The next lines start with the values.
row,IC50 [nM],Structure (SMILES)
1,2.8,"Cn1cnc2c(=O)n(-c3cccc(F)c3Cl)c3nc(C(F)(F)F)ccc3c21 (single isomer, unassigned) [Compound 25-P2, 5-(2-chloro-3-fluorophenyl)-1-methyl-7-(trifluoromethyl)-1,5-dihydro-4H-imidazo[4,5-c][1,8]naphthyridin-4-one]"
2,4.4,"Cn1cnc2c(=O)n(-c3cccc(F)c3Cl)c3nc(C(F)(F)F)ccc3c21 (atropisomer, axis not shown) [Compound 25, 5-(2-chloro-3-fluorophenyl)-1-methyl-7-(trifluoromethyl)-1,5-dihydro-4H-imidazo[4,5-c][1,8]naphthyridin-4-one]"
